Test results: patent US7183267B2, “β-lactamase inhibitors and methods of use thereof” (priority 2003, dated 2007)

What was measured:
TEM-1 β-lactamase = TEM-1 β-lactamase (Escherichia coli, UniProt P62593); assay: TEM-1 β-lactamase inhibition assay (nitrocefin hydrolysis, 486 nm); format: biochemical; details: Ki, 25° C., 50 mM sodium phosphate, 5% DMSO, pH 7.0; enzyme 5 nM, nitrocefin 167 μM
How it was run: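 TEM-1 activity followed by nitrocefin hydrolysis at 486 nm, 25 °C, 50 mM sodium phosphate pH 7.0, 5% DMSO; inhibitor preincubated with enzyme 10 min before substrate. Ki obtained from rates at increasing inhibitor concentrations fitted to competitive-inhibition equations; penicillin G also used as substrate for KM and kcat.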

β-lactamase R244S = β-lactamase R244S (Escherichia coli, UniProt P62593, R241S); assay: Isothermal titration calorimetry, binding enthalpy, R244S mutant
Experimental: The binding of the compounds of the present invention to β-lactamase was also measured by isothermal titration calorimetry.
These experiments, in combination with the inhibition assays, indicate that the compounds identified in this disclosure bind to the wild type as well as drug resistant beta lactamases with favorable binding enthalpies. This is a very important characteristic from the point of view of further optimization since it facilitates the achievement of extremely high affinities and low susceptibilities to drug resistant mutations and naturally occurring polymorphisms.
Isothermal titration calorimetry was performed on a high-precision VP-ITC titration calorimeter (Microcal Inc., Northampton, Mass.). β-Lactamase solutions were titrated with inhibitors in 50 mM sodium phosphate, 2% DMSO, pH 7.0, with β-lactamase concentrations ranging from 15 to 25 μM and inhibitor concentrations ranging from 300 to 1000 μM. The heat evolved from each injection was obtained by integrating the calorimetric signal. Heat of binding was obtained as the difference between the heat of reaction and the heat of inhibitor dilution. Data were analyzed using Origin 7.0 (OriginLab Corporation, Northampton, Mass.).

β-lactamase mutant E104K = β-lactamase mutant E104K (Escherichia coli, UniProt P62593, E102K); format: biochemical; details: number higher than 1 reflects a loss of potency against mutant
[1] = tested on: methicillin resistant S. aureus from Stanford University Hospital (MRSA-SU); assay: Matrix system: oxacillin plus β-lactamase inhibitor, MRSA-SU; format: cell-based
Experimental: To each well of a 96 well microtiter plate was added 47.5 μl of MHB. A volume of 2.5 μl of each dilution of oxacillin was then transferred to appropriate wells containing the medium. All wells, except the sterility control wells, were then inoculated with 50 μl of a diluted cell suspension to give a final volume of 100 μl and a final cell density of 5×10^4 CFU/well. The volume in the sterility control wells was adjusted to 100 μl with MHB. A sterile pipette tip was used to mix the contents of each well (one tip was used going from the low to the high concentration in the same column). The microtiter plates were covered with the lids and were placed in large Stratagene Big Blue plates (Cat. # 400041). Four large kimwipes moistened with tap water were placed near the edges of the Stratagene plates to prevent evaporation of the medium. The microtiter plates were incubated for at least 24 hours at 35° C. The plates were then evaluated for growth in each well. Controls included: medium sterility and negative control (medium and bacteria only).
A numerical code was used to evaluate the extent of growth as indicated below. • 0: absence of growth • 1: barely visible (faint) growth • 2: fair growth but less than the negative solvent control • 3: growth is equivalent to the negative solvent control.
The lowest dose at which no visible growth is observed was determined to be the MIC value.
The effect of the four compounds of the present invention on oxacillin resistance of the MRSA strains was determined using a matrix system. The β-lactamase inhibitors were tested at 5 doses against up to eleven concentrations of oxacillin. […] A 96-well microtiter plate was used for the matrix system. The procedure was identical to that described above for the MIC determination, with the exception that both oxacillin and one each of the β-lactamase inhibitors was added, 2.5 μl each, to the wells prior to addition of the test organisms.
Matrix Study:Oxacillin and Compound FL201 with MRSA-SU
Matrix Study: Oxacillin and Compound FL202 with MRSA-SU

O=C(OCc1ccccc1)c1cc(B(O)O)cc([N+](=O)[O-])c1 [Compound F1201]
Ki (TEM-1 β-lactamase): 27 µM | ΔH R244S (β-lactamase R244S): -6.5 kcal/mol | Loss of potency: ratio of the inhibitory constant between mutant and wild type (Potencywt/Potencymutant), E104K (β-lactamase mutant E104K): 0.48 | MIC (oxacillin) ([1]; Table 17, in presence of F1201 2 μg/ml): 64 µg/mL | MIC (oxacillin) ([1]; Table 17, in presence of F1201 4 μg/ml): 16 µg/mL | MIC (oxacillin) ([1]; Table 17, in presence of F1201 8 μg/ml): 0.5 µg/mL | MIC (oxacillin) ([1]; Table 17, in presence of F1201 16 μg/ml): <0.064 µg/mL | growth score ([1]; Table 17, oxacillin 0, F1201 2 μg/ml): 3 | growth score ([1]; Table 17, oxacillin 0, F1201 4 μg/ml): 2 | growth score ([1]; Table 17, oxacillin 0, F1201 8 μg/ml): 2 | growth score ([1]; Table 17, oxacillin 0, F1201 16 μg/ml): 1 | growth score ([1]; Table 17, oxacillin 0, F1201 32 μg/ml): 0 | growth score ([1]; Table 17, oxacillin 0.064 μg/ml + F1201 2 μg/ml): 2 | growth score ([1]; Table 17, oxacillin 0.064 μg/ml + F1201 4 μg/ml): 2 | growth score ([1]; Table 17, oxacillin 0.064 μg/ml + F1201 8 μg/ml): 1 | growth score ([1]; Table 17, oxacillin 0.064 μg/ml + F1201 16 μg/ml): 0 | growth score ([1]; Table 17, oxacillin 0.064 μg/ml + F1201 32 μg/ml): 0 | growth score ([1]; Table 17, oxacillin 0.125 μg/ml + F1201 2 μg/ml): 2 | growth score ([1]; Table 17, oxacillin 0.125 μg/ml + F1201 4 μg/ml): 2 | growth score ([1]; Table 17, oxacillin 0.125 μg/ml + F1201 8 μg/ml): 1 | growth score ([1]; Table 17, oxacillin 0.125 μg/ml + F1201 16 μg/ml): 0 | growth score ([1]; Table 17, oxacillin 0.125 μg/ml + F1201 32 μg/ml): 0 | growth score ([1]; Table 17, oxacillin 0.25 μg/ml + F1201 2 μg/ml): 2 | growth score ([1]; Table 17, oxacillin 0.25 μg/ml + F1201 4 μg/ml): 1 | growth score ([1]; Table 17, oxacillin 0.25 μg/ml + F1201 8 μg/ml): 1 | growth score ([1]; Table 17, oxacillin 0.25 μg/ml + F1201 16 μg/ml): 0 | growth score ([1]; Table 17, oxacillin 0.25 μg/ml + F1201 32 μg/ml): 0 | growth score ([1]; Table 17, oxacillin 0.5 μg/ml + F1201 2 μg/ml): 2 | growth score ([1]; Table 17, oxacillin 0.5 μg/ml + F1201 4 μg/ml): 1 | growth score ([1]; Table 17, oxacillin 0.5 μg/ml + F1201 8 μg/ml): 0 | growth score ([1]; Table 17, oxacillin 0.5 μg/ml + F1201 16 μg/ml): 0 | growth score ([1]; Table 17, oxacillin 0.5 μg/ml + F1201 32 μg/ml): 0 | growth score ([1]; Table 17, oxacillin 1 μg/ml + F1201 2 μg/ml): 1 | growth score ([1]; Table 17, oxacillin 1 μg/ml + F1201 4 μg/ml): 1 | growth score ([1]; Table 17, oxacillin 1 μg/ml + F1201 8 μg/ml): 0 | growth score ([1]; Table 17, oxacillin 1 μg/ml + F1201 16 μg/ml): 0 | growth score ([1]; Table 17, oxacillin 1 μg/ml + F1201 32 μg/ml): 0 | growth score ([1]; Table 17, oxacillin 2 μg/ml + F1201 2 μg/ml): 1 | growth score ([1]; Table 17, oxacillin 2 μg/ml + F1201 4 μg/ml): 1 | growth score ([1]; Table 17, oxacillin 2 μg/ml + F1201 8 μg/ml): 0 | growth score ([1]; Table 17, oxacillin 2 μg/ml + F1201 16 μg/ml): 0 | growth score ([1]; Table 17, oxacillin 2 μg/ml + F1201 32 μg/ml): 0 | growth score ([1]; Table 17, oxacillin 4 μg/ml + F1201 2 μg/ml): 1 | growth score ([1]; Table 17, oxacillin 4 μg/ml + F1201 4 μg/ml): 1 | growth score ([1]; Table 17, oxacillin 4 μg/ml + F1201 8 μg/ml): 0 | growth score ([1]; Table 17, oxacillin 4 μg/ml + F1201 16 μg/ml): 0 | growth score ([1]; Table 17, oxacillin 4 μg/ml + F1201 32 μg/ml): 0 | growth score ([1]; Table 17, oxacillin 16 μg/ml + F1201 2 μg/ml): 1 | growth score ([1]; Table 17, oxacillin 16 μg/ml + F1201 4 μg/ml): 0 | growth score ([1]; Table 17, oxacillin 16 μg/ml + F1201 8 μg/ml): 0 | growth score ([1]; Table 17, oxacillin 16 μg/ml + F1201 16 μg/ml): 0 | growth score ([1]; Table 17, oxacillin 16 μg/ml + F1201 32 μg/ml): 0 | growth score ([1]; Table 17, oxacillin 64 μg/ml + F1201 2 μg/ml): 0 | growth score ([1]; Table 17, oxacillin 64 μg/ml + F1201 4 μg/ml): 0 | growth score ([1]; Table 17, oxacillin 64 μg/ml + F1201 8 μg/ml): 0 | growth score ([1]; Table 17, oxacillin 64 μg/ml + F1201 16 μg/ml): 0 | growth score ([1]; Table 17, oxacillin 64 μg/ml + F1201 32 μg/ml): 0 | growth score ([1]; Table 17, oxacillin 128 μg/ml + F1201 2 μg/ml): 0 | growth score ([1]; Table 17, oxacillin 128 μg/ml + F1201 4 μg/ml): 0 | growth score ([1]; Table 17, oxacillin 128 μg/ml + F1201 8 μg/ml): 0 | growth score ([1]; Table 17, oxacillin 128 μg/ml + F1201 16 μg/ml): 0 | growth score ([1]; Table 17, oxacillin 128 μg/ml + F1201 32 μg/ml): 0 | growth score ([1]; Table 17, oxacillin 256 μg/ml + F1201 2 μg/ml): 0 | growth score ([1]; Table 17, oxacillin 256 μg/ml + F1201 4 μg/ml): 0 | growth score ([1]; Table 17, oxacillin 256 μg/ml + F1201 8 μg/ml): 0 | growth score ([1]; Table 17, oxacillin 256 μg/ml + F1201 16 μg/ml): 0 | growth score ([1]; Table 17, oxacillin 256 μg/ml + F1201 32 μg/ml): 0
